From US5081241A, “Spiro-pyridazines and analogs thereof useful as aldose reductase inhibitors” (American Home Products Corporation, priority 1990, dated 1992)

Legend:
aldose reductase = target: T1, aldose reductase (Bos taurus, UniProt P16116); assay: in vitro aldose reductase inhibition (modified Hayman and Kinoshita procedure; enzyme from bovine lens); type: biochemical; details: 10^-5
T1 construct: preparation of the enzyme from bovine lens; from tissue; host or cells: bovine lens
Description: (§1) (c) The polyol determination was performed by a modification of the procedure of M. Kraml and L. Cosyns, Clin. Biochem., 2, 373 (1969). Only two minor reagent changes were made: (a) the rinsing mixture was an aqueous 5% (w/v) trichloroacetic acid solution and (b) the stock solution was prepared by dissolving 25 mg of dulcitol in 100 mL of an aqueous trichloroacetic acid solution. [N.B.: For each experiment the average value found in the tissue from rats fed the glucose diet was subtracted from the individual values found in the corresponding tissue in galactose-fed rats to obtain the amount of polyol accumulated.] The aldose reductase inhibiting effects of the compounds of formula (I) were also tested by employing an in vitro testing procedure similar to that described by S. Hayman and J. H. Kinoshita, J. Biol. Chem., 240, 877 (1965). In the present case the procedure of Hayman and Kinoshita was modified in that the final chromatography step was omitted in the preparation of the enzyme from bovine lens.

[1] = tested on: accumulation of dulcitol in the lenses, sciatic nerves and diaphragm of rats fed galactose; assay: in vivo lowering of galactitol (dulcitol) accumulation in galactosemic rats; set-up: species or system male Sprague-Dawley rats
From the text: The aldose reductase inhibiting property of the compounds of this invention and the utilization of the compounds in preventing, diminishing and alleviating diabetic complications are demonstrable in experiments using galactosemic rats, see Dvornik et al., Science, 182, 1146 (1973). Such experiments are exemplified hereinbelow after the listing of the following general comments pertaining to these experiments:
(a) Four or more groups of six male rats, 50-70 g, Sprague-Dawley strain, were used. The first group, the control group, was fed a mixture of laboratory chow (rodent Laboratory Chow, Purina) and glucose at 20% (w/w %) concentration. An untreated galactosemic group was fed a similar diet in which galactose was substituted for glucose. The third group was fed a diet prepared by mixing a given amount of the test compound with the galactose containing diet. The concentration of galactose in the diet of the treated groups was the same as that for the untreated galactosemic group.
(b) After four days, the animals were killed by euthanization. Both the lens and sciatic nerve were removed, weighed and stored frozen for polyol determination.
as §1
The figures under L, N, and D represent the percentage decrease of dulcitol accumulation in the tissues of the lens, sciatic nerve, and diaphragm, respectively, for treated rats as compared to untreated rats.

[2] = feed or water, 55 mg/kg/day, 96 h

| Structure (SMILES) | % Inhibition In Vitro (aldose reductase) | % Lowering Galacititol Accumulation In Vivo % (D) [1, 2] | % Lowering Galacititol Accumulation In Vivo % (D) ([1]; diaphragm, dose 25 mg/kg/day in diet, 4 days, vs untreated galactosemic rats) | % Lowering Galacititol Accumulation In Vivo % (D) ([1]; diaphragm, dose 47 mg/kg/day in diet, 4 days, vs untreated galactosemic rats) | % Lowering Galacititol Accumulation In Vivo % (L) ([1]; lens, dose 47 mg/kg/day in diet, 4 days, vs untreated galactosemic rats) |
| --- | --- | --- | --- | --- | --- |
| CN1NC(=O)C2(CC1=O)C(=O)N(Cc1ccc(Br)cc1F)C(=O)c1ccccc12 (centres unmarked) [R^1 = H, R^5 = H, 2-[(4-bromo-2-fluorophenyl)methyl]-1'-methylspiro[isoquinoline-4(1H),4'(1'H)-pyridazine]-1,3,3',6'(2H,2'H,5'H)-tetrone] | 21% | 21% |  |  |  |
| CN1C(=O)CC2(C(=O)N(Cc3ccc(Br)cc3F)C(=O)c3ccccc32)C(=O)N1C (centres unmarked) [R^1 = H, R^5 = CH3, 2-[(4-bromo-2-fluorophenyl)methyl]-1',2'-dimethylspiro[isoquinoline-4(1H),4'(1'H)-pyridazine]-1,3,3',6'(2H,2'H,5'H)-tetrone] | 6% | 82% | 48% |  |  |
| CN1C(=O)CC2(C(=O)N(Cc3ccc(Br)cc3F)C(=O)c3ccc(F)cc32)C(=O)N1C (centres unmarked) [R^1 = F, R^5 = CH3, 2-[(4-bromo-2-fluorophenyl)methyl]-6-fluoro-1',2'-dimethylspiro[isoquinoline-4(1H),4'(1'H)-pyridazine]-1,3,3',6'(2H,2'H,5'H)-tetrone] | 5% |  |  | 59% | 18% |
